IC50 data for 13 compounds are collected here from patent US9969694B2, “N-(arylalkyl)-N′-pyrazolyl-urea, thiourea, guanidine and cyanoguanidine compounds as TrkA kinase inhibitors” (Array BioPharma Inc., priority 2012, dated 2018).

The IC50 is the midpoint of a concentration-inhibition curve.

Some results are limits rather than exact numbers.

The target of this experiment is T1, His-tagged recombinant human TrkA (Homo sapiens, UniProt P04629).
T1 construct: 6HIS tagged cytoplasmic domain from Invitrogen, Catalog No. PV3144; purchased Invitrogen PV3144
T1 sequence (P04629 440-796 limits assumed): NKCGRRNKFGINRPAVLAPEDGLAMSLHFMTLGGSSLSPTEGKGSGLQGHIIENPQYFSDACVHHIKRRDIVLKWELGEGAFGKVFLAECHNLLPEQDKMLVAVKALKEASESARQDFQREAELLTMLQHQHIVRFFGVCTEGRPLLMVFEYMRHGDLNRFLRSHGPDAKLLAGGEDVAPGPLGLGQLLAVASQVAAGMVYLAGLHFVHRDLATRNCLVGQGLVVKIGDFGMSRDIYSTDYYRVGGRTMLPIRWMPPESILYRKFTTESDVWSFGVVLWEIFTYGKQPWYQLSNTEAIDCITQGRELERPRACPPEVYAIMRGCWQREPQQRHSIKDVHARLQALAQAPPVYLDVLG
Kind of experiment: TrkA Kinase Binding Assay (LanthaScreen Eu). The conditions noted are these: averaged IC50; TR-FRET binding, 60 min, 22° C.; read-out: TrkA Enzyme IC50. The protocol:
TrkA binding activity was determined in a TrkA LanthaScreen™ Eu Kinase Binding Assay. 5 nM His-tagged recombinant human TrkA (6HIS tagged cytoplasmic domain from Invitrogen, Catalog No. PV3144) was incubated with 4 nM Alexa-Fluor® Tracer 236 (Invitrogen Cat. No. PV5592), 2 nM biotinylated anti-His (Invitrogen Cat. No. PV6090), and 2 nM europium-labeled Streptavidin (Invitrogen Cat. No. PV5899), in buffer (25 mM MOPS, pH 7.5, 5 mM MgCl2, 0.005% Triton X-100). Three fold serial dilutions of compounds of the invention in DMSO were added to a final percentage of 2% DMSO. After 60-minute incubation at 22° C., the reaction was measured using the EnVision mutlimode plate reader (PerkinElmer) via TR-FRET dual wavelength detection at […]. The percent of control was calculated using a ratiometric emission factor. The IC50 values were determined by fitting a four parameter model to the percent of control data.
Table A provides averaged IC50 values for compounds of the invention when tested in the assay of Example A, where A represents an averaged IC50 value <100 nM; B represents an averaged IC50 value from 100 to 1,000 nM; and C represents an average 1050 value above 1000 nM.
A general note: In TR-FRET formats the signal depends on donor and acceptor labels being close together.
For the compound “5-(3-(2-(difluoromethoxy)-5-(methoxymethyl)benzyl)ureido)-N,4-dimethyl-1-phenyl-1H-pyrazole-3-carboxamide [Example 51]”, the half-maximal inhibitory concentration (IC50) is less than 100 nM. The same measure for `COCc1ccc(C2CC2)c(CNC(=O)Nc2c(C)c(-c3cnc(C)nc3)nn2-c2ccccc2)c1` [Example 1, 1-(2-cyclopropyl-5-(methoxymethyl)benzyl)-3-(4-methyl-3-(2-methylpyrimidin-5-yl)-1-phenyl-1H-pyrazol-5-yl)urea]: less than 100 nM. For the compound `CCOc1nn(-c2ccccc2)c(NC(=O)NCc2cc(COC)ccc2C2CC2)c1C` [Example 2, 1-(2-cyclopropyl-5-(methoxymethyl)benzyl)-3-(3-ethoxy-4-methyl-1-phenyl-1H-pyrazol-5-yl)urea], the IC50 is less than 100 nM. For the compound `COCc1ccc(C2CC2)c(CNC(=O)Nc2c(C)c(-c3ccc(C)nc3)nn2-c2ccccc2)c1` [Example 3, 1-(2-cyclopropyl-5-(methoxymethyl)benzyl)-3-(4-methyl-3-(6-methylpyridin-3-yl)-1-phenyl-1H-pyrazol-5-yl)urea], the IC50 was less than 100 nM.

Take `COCc1ccc(C2CC2)c(CNC(=O)Nc2c(C)c(-c3ccc(=O)n(C)c3)nn2-c2ccccc2)c1` [Example 4, 1-(2-cyclopropyl-5-(methoxymethyl)benzyl)-3-(4-methyl-3-(1-methyl-6-oxo-1,6-dihydropyridin-3-yl)-1-phenyl-1H-pyrazol-5-yl)urea]: the IC50 is less than 100 nM. The same measure for `COCc1ccc(C2CC2)c(CNC(=O)Nc2c(C)c(C)nn2-c2ccccc2)c1` [Example 5, 1-(2-cyclopropyl-5-(methoxymethyl)benzyl)-3-(3,4-dimethyl-1-phenyl-1H-pyrazol-5-yl)urea]: less than 100 nM; for `COCc1ccc(C2CC2)c(CNC(=O)Nc2c(C)c(-c3cnn(C)c3)nn2-c2ccccc2)c1` [Example 6, 1-(2-cyclopropyl-5-(methoxymethyl)benzyl)-3-(1′,4-dimethyl-1-phenyl-1H,1′H-[3,4′-bipyrazol]-5-yl)urea]: less than 100 nM.

With `COCc1ccc(C2CC2)c(CNC(=O)Nc2c(C)c(-c3ccn(C)c(=O)c3)nn2-c2ccccc2)c1` [Example 7, 1-(2-cyclopropyl-5-(methoxymethyl)benzyl)-3-(4-methyl-3-(1-methyl-2-oxo-1,2-dihydropyridin-4-yl)-1-phenyl-1H-pyrazol-5-yl)urea], the IC50 is less than 100 nM.

As to `COCc1ccc(C2CCC2)c(CNC(=O)Nc2c(C)c(-c3ccc(C)nc3)nn2-c2ccccc2)c1` [Example 8, 1-(2-cyclobutyl-5-(methoxymethyl)benzyl)-3-(4-methyl-3-(6-methylpyridin-3-yl)-1-phenyl-1H-pyrazol-5-yl)urea], the concentration for half-maximal inhibition (IC50) was less than 100 nM.

For `COCc1ccc(C2CCC2)c(CNC(=O)Nc2c(C)c(-c3ccc(=O)n(C)c3)nn2-c2ccccc2)c1` [Example 9, 1-(2-cyclobutyl-5-(methoxymethyl)benzyl)-3-(4-methyl-3-(1-methyl-6-oxo-1,6-dihydropyridin-3-yl)-1-phenyl-1H-pyrazol-5-yl)urea], the IC50 is less than 100 nM. For the compound `COCc1ccc(C2CCC2)c(CNC(=O)Nc2c(C)c(-c3cnn(C)c3)nn2-c2ccccc2)c1` [Example 11, 1-(2-cyclobutyl-5-(methoxymethyl)benzyl)-3-(1′,4-dimethyl-1-phenyl-1H,1′H-[3,4′-bipyrazol]-5-yl)urea], the concentration for half-maximal inhibition (IC50) is less than 100 nM. As for `COCc1ccc(C2CCCC2)c(CNC(=O)Nc2c(C)c(-c3cnc(C)nc3)nn2-c2ccccc2)c1` [Example 12, 1-(2-cyclopentyl-5-(methoxymethyl)benzyl)-3-(4-methyl-3-(2-methylpyrimidin-5-yl)-1-phenyl-1H-pyrazol-5-yl)urea], the IC50 was less than 100 nM. Consider `COCc1ccc(C2CCCC2)c(CNC(=O)Nc2c(C)c(-c3ccc(C)nc3)nn2-c2ccccc2)c1` [Example 13, 1-(2-cyclopentyl-5-(methoxymethyl)benzyl)-3-(4-methyl-3-(6-methylpyridin-3-yl)-1-phenyl-1H-pyrazol-5-yl)urea], for which the 50% inhibitory concentration (IC50) was less than 100 nM.
